The values below come from article PMC12124721, “Impact of Fluorine Pattern on Lipophilicity and Acid–Base Properties of 2‑(Thiofluoroalkyl)pyridines: Insights from Experiments and Statistical Modeling” (Journal of Medicinal Chemistry, 2025).

“And” between values parts separate entries of the source, which are not always exact repeats. Equal values may be shown once. “Also recorded” adds a separate entry of the source.

Data set [1] is described as follows: logD7.4 by shake-flask HPLC-UV for nonfluorinated pyridines. In kind it is physicochemical. Particulars: for logD: 1-octanol/phosphate buffer, pH 7.4, 1-octanol/phosphate buffer pH 7.4, HPLC-UV; for logD (single sample A, B, C): Table S2, individual HPLC-UV partitionings at different buffer:octanol volume ratios, pH 7.4. The protocol: A protocol described by Ràfols and coworkers was followed for the determination of the log D ^7.4 values of the nonfluorinated pyridines. The 4-step process was replicated three times for each compound: • Stocksolution preparation: in a 12 mL vial, 15 mg of the pyridine was charged. Then, 6 mL of phosphate buffer at pH 7.4 was added, and the mixture was vigorously shaken for 2 h. An aliquot of this stock solution was measured by HPLC-UV. • Partitioning: three partitioning experiments were carried out for each compound. To prepare an experiment, in a vial containing a magnetic stir bar, a known amount of the stock solution was introduced, followed by another known amount of 1-octanol. Next, the biphasic mixture was stirred for 2 h and left to stand overnight to allow phase partition. For the selection of the different volume ratios, it was followed reported recommendations, although 1:1, 10:1, and 1:10 octanol:stock solutions were usually employed. • Sample preparation and measurement: to prepare the sample, 0.1 mL of the aqueous phase was taken and introduced in a 2 mL vial, following the precautions described in the previous section. The samples were then analyzed with the same HPLC-UV method as that of the stock solution. The log D ^7.4 value was obtaining by comparing the initial amount of pyridine in the aqueous phase before and after partitioning, taking into consideration the volume rates.

Data set [2] can be described thus: pKa of conjugate acid by 1H NMR titration (nonfluorinated analogues). The format is physicochemical. As to conditions: aqueous solutions of different pH, conjugate acid (pyridinium), water. The protocol: (§1) The measurements were conducted on the corresponding conjugate acids of the thiofluoroalkylpyridines using an ^19F NMR method developed by Leito and coworkers. For nonfluorinated analogues, pK a was determined by an analogous method using ^1H NMR. […] Likewise, internal difluorination of the thioethyl group led to a more acidic pyridinium (9, pK a 2.05) compared to terminal difluorination (6, pK a 2.43). […] Computationally, it is straightforward to determine pK a values for molecular organic systems, obtaining quantitative predictions via fitting to experimental data (Table S12).
A protocol developed by the group of Leito was followed for the determination of the […] of fluorinated 2-substituted pyridines using ^19F NMR. […] Next, the tube was caped and shaken vigorously, and the pH of the resulting solution was measured inside the tube with a pH meter with an NMR-tube probe. […] Next, a standard ^19F NMR experiment was recorded to determine the chemical shifts of the external standard and the sample of interest. […] The battery of NMR samples at different pH values was measured. • Data processing: using MestReNova NMR software, the chemical shifts of the pyridines were determined. […] Next, the selected signal for each pyridine was plotted against the pH of the measured solution. […]

Data set [3] in a line: pKa of conjugate acid by 19F NMR titration (Leito method). The format is physicochemical. As to conditions: aqueous solutions of different pH, conjugate acid (pyridinium), water. How it is done: as §1
A protocol developed by the group of Leito was followed for the determination of the […] of fluorinated 2-substituted pyridines using ^19F NMR. […] Next, the tube was caped and shaken vigorously, and the pH of the resulting solution was measured inside the tube with a pH meter with an NMR-tube probe. This procedure was repeated for all of the aqueous solutions to have a battery of NMR tubes at different pH values. If needed, additional solutions were prepared to ensure a continuum of pH values. • Sample measurement: for ^19F NMR measurements, a 3 mm NMR tube containing a solution of 8 mg of KF in 1 mL of D2O was inserted into the NMR tube of interest to serve as an external standard. Next, a standard ^19F NMR experiment was recorded to determine the chemical shifts of the external standard and the sample of interest. For the ^1H method, the same protocol was applied by changing the external standard for 5 μL of trifluoroethanol instead of KF. The battery of NMR samples at different pH values was measured. • Data processing: using MestReNova NMR software, the chemical shifts of the pyridines were determined. For ^19F NMR experiments, the KF reference was set to −125.00 ppm, and the closest ^19F signal of the pyridine was chosen for the chemical shift determination. For ^1H NMR experiments, the trifluoroethanol reference (CF3CH2OH) was set to 3.14 ppm, and the methyl signals of the nonfluorinated pyridines were chosen for the chemical shift determination. Next, the selected signal for each pyridine was plotted against the pH of the measured solution. Using Prism GraphPad software, a sigmoidal curve was adjusted, and the second derivate was performed to obtain the pK a value of the given pyridine.

The nature of data set [4]: logD7.4 by 19F NMR shake-flask partitioning (Linclau method). The format is physicochemical. As to conditions: for logD: 1-octanol/phosphate buffer; for logD (single replicate): Table S1, individual 19F NMR partitioning experiments. How it is done: LogD ^7.4 (pH 7.4) measurements of the 2-(thiofluoroalkyl)-pyridines were conducted according to a method developed by Linclau and coworkers, a variation on the traditional “shake-flask” partitioning between octanol and water. Together with a fluorinated internal standard of known lipophilicity, simple ^19F NMR experiments allowed for the calculation of the logD ^7.4 value of the compound of interest through integration of NMR signals in each phase. During our experiments, no difference between logD ^7.4 and logP values was observed, probably due to the low basicity of the pyridines. Nonetheless, for the sake of consistency, logD ^7.4 was deemed the appropriate parameter for evaluating lipophilicity.
A protocol developed by the group of Linclau was followed for the determination of the log D ^7.4 values of the 2-substituted pyridines. The 4-step process was replicated three times for each compound: • Partitioning: to a 10 mL pear-shaped flask were added 2 mL of 1-octanol, 2-substituted pyridine (1–10 mg), trifluoroethanol (5 μL), and 2 mL of phosphate buffer (pH 7.4). The resulting mixture was stirred at 25 °C for 2 h by controlling the temperature by an immersion cooler, and then, it was left to stand at 25 °C overnight to enable complete phase separation. • Sample preparation: using a 1 mL disposable syringe, an aliquot of 0.6 mL was carefully taken from the aqueous or the 1-octanol phase. Next, the needle was carefully wiped with a dry tissue, and the aliquot was placed into an NMR tube, followed by addition of 0.1 mL of acetone-d 6. The NMR tubes were sealed using a rubber septum stopper and shaken to obtain a homogeneous solution for NMR measurement. When taking an aliquot of the lower water phase, to avoid the contamination of the syringe with the upper octanol phase, 0.05 mL of air was taken into the syringe before putting the needle into the solution, and while immersing it through the upper octanol layer, the air was gently pushed out. Upon reaching the water phase, all air bubbles are pushed out of the syringe, the aliquot is taken, and the needle is quickly removed from the solution. Then, a small amount of the water phase was discarded to ensure all traces of octanol are out of the needle, leaving a 0.6 mL sample in the syringe. • NMR measurement: fluorine (^19F{1H} NMR) nuclear magnetic resonance spectra were recorded on a Varian Mercury spectrometer or Bruker Avance Ultrashield (376.5 MHz for ^19F NMR). Parameters used in the determination of lipophilicities were obtained from the experiments carried out by Linclau and coworkers. First, the sealed tube was inserted to the NMR spectrometer, and following automatic locking and gradient shimming, a simple ^19F spectrum was recorded on the nonspinning sample to assess the required spectral width (SW) and frequency offset point (O1P). The O1P is centered between the two diagnostic F signals, and the spectral width (SW) is left at 200 ppm (it can be reduced if a better S/N ratio is required). Then, the 90° pulse was measured with the automated pulsecal routine obtaining a power (PW) of 16 μs. The measured 90° pulse, SW, and O1P were transferred into the inversion–recovery experiment. For practical purposes, it is recommended to use a D1 of 30 s for the octanol sample and of 60 s for the water sample as pulse delay, given the D1 value should be greater than 5*T1 for quantitative integration. The number of transients (NS) is selected for each sample to afford a suitable signal-to-noise ratio (SNR should be >250). • Data processing:data were processed using Mestre Nova NMR software. The obtained FID file was reprocessed using the following conditions: WFunction (LB = 2, exponential), zero filling (increasing points from 65,536 to 262,144) and then Fourier transform, followed by phasing with mouse and auto baseline correction. The integration ratio was obtained by manual integration.

Data set [5] is described as follows: stability in aqueous media during logD measurement. In kind it is physicochemical. Particulars: during logD7.4 measurement period. From the text:
The computational model can also be employed to predict the lipophilicity of experimentally undetermined compounds such as pyridines 21 and 22 (Figure ).

Details of data set [6]: method as in earlier work. Particulars: thiofluoroalkyl benzenes; logP (=logD7.4) measured indirectly by HPLC retention times; ref 36 (SI), O'Hagan group; cited from earlier work.
[7] abbreviates: nonfluorinated pyridines, mean of three.
The mark [8] stands for this setting: pH 7.4, 1-octanol/phosphate buffer pH 7.4, 25 °C, trifluoroethanol reference, 19F NMR, mean of three, read-out: logD7.4.
[9] abbreviates: pH 7.4, Table S1, individual 19F NMR partitioning experiments, pH 7.4, read-out: logD (single replicate).

Regarding `CSc1ccccn1` [Compound 1, 2-(methylthio)pyridine], in data set [1] (setting [7]), the logD was found to be 1.69. Also, the pKa in data set [2] came to 3.69.
Compound `FC(F)Sc1ccccn1` [Compound 2, 2-((Difluoromethyl)thio)pyridine] displayed a pKa in data set [3] of 1.7. Also, the logD in data set [4] (setting [8]) stood at 1.95.
For `FC(F)(F)Sc1ccccn1` [Compound 3, 2-((Trifluoromethyl)thio)pyridine], the pKa in data set [3] came out at 0.97. Moreover, the logD in data set [4] (setting [8]) was 2.13.
Turning to `CC(F)(F)Sc1ccccn1` [Compound 4, 2-((1,1-Difluoroethyl)thio)pyridine], in data set [3], the pKa came to 2.05. Further, the logD7.4 in data set [4] (1-octanol/phosphate buffer pH 7.4, 25 °C, trifluoroethanol reference, 19F NMR, mean of three) stood at 1.84. Further, the logD in data set [4] (setting [8]) amounted to 1.82.
As for `FC(F)CSc1ccccn1` [Compound 6, 2-((2,2-Difluoroethyl)thio)pyridine], the pKa in data set [3] was determined as 2.43. In data set [4] (setting [8]), the logD amounted to 2.26.
The corresponding values for `FC(F)C(F)(F)Sc1ccccn1` [Compound 7, 2-((1,1,2,2-Tetrafluoroethyl)thio)pyridine] are 1.33 and 2.27.
In data set [3], `FC(F)(F)CSc1ccccn1` [Compound 8, 2-((2,2,2-Trifluoroethyl)thio)pyridine] gave a pKa of 1.49. Besides, the logD in data set [4] (setting [8]) is 2.71.
`FC(F)(F)C(F)(F)Sc1ccccn1` [Compound 9, 2-((Perfluoroethyl)thio)pyridine] registered a pKa in data set [3] of 0.94. Besides, the logD in data set [4] (setting [8]) was 2.76.
Consider `CS(=O)(=O)c1ccccn1` [Compound 10, 2-(Methylsulfonyl)pyridine], for which the logD in data set [1] (setting [7]) was -0.43. In addition, the “logD (single sample A, B, C)” value in data set [1] is -0,407 and -0,414 and -0,469.
On to `O=S(=O)(CF)c1ccccn1` [Compound 11, 2-((Fluoromethyl)sulfonyl)pyridine], for which the logD in data set [4] (setting [8]) came out at 0.1; in data set [4] (setting [9]), 0.093. The “logD (single replicate)” value in data set [4] (pH 7.4) is 0,112 and 0,084.
`O=S(=O)(c1ccccn1)C(F)F` [Compound 12, 2-((Difluoromethyl)sulfonyl)pyridine]: the logD in data set [4] (setting [8]) is 0.55; in data set [4] (setting [9]) it was 0.576. The “logD (single replicate)” value in data set [4] (pH 7.4) is 0,541 and 0,538.
Consider `O=S(=O)(c1ccccn1)C(F)(F)F` [Compound 13, 2-((Trifluoromethyl)sulfonyl)pyridine], for which the logD in data set [4] (setting [8]) was found to be 1.43.
For the compound `O=S(=O)(CCF)c1ccccn1` [Compound 14, 2-((2-Fluoroethyl)sulfonyl)pyridine], in data set [4] (setting [8]), the logD was -0.21. Further, the “logD (single replicate)” value in data set [4] (pH 7.4) was -0,199 and -0,158 and -0,274.
As for `CCS(=O)(=O)c1ccccn1` [Compound 15, 2-(Ethylsulfonyl)pyridine], in data set [1] (1-octanol/phosphate buffer pH 7.4, HPLC-UV, nonfluorinated pyridines, mean of three), the logD7.4 is reported as -0,07. In data set [1] (setting [7]), this compound registered a logD of -0.07. The “logD (single sample A, B, C)” value in data set [1] was -0,032 and -0,070 and -0,118.
For the compound `O=S(=O)(CC(F)F)c1ccccn1` [Compound 16, 2-((2,2-Difluoroethyl)sulfonyl)pyridine], the logD was determined as 0.31 in data set [4] (setting [8]) and 0.304 in data set [4] (setting [9]). Also, in data set [4] (pH 7.4), the “logD (single replicate)” value is 0,315 and 0,309.
As to `CC(F)(F)S(=O)(=O)c1ccccn1` [Compound 17, 2-((1,1-Difluoroethyl)sulfonyl)pyridine], the values for the logD in data set [4] (setting [8]) and in data set [4] (setting [9]) were 0.79 and 0.786, respectively. Besides, in data set [4] (pH 7.4), the “logD (single replicate)” value is 0,784 and 0,794.
`O=S(=O)(CC(F)(F)F)c1ccccn1` [Compound 18, 2-((2,2,2-Trifluoroethyl)sulfonyl)pyridine]: the logD in data set [4] (setting [8]) is 0.81; in data set [4] (setting [9]) it was 0.813. Also, the “logD (single replicate)” value in data set [4] (pH 7.4) was 0,802 and 0,803.
Turning to `O=S(=O)(c1ccccn1)C(F)(F)C(F)F` [Compound 19, 2-((1,1,2,2-Tetrafluoroethyl)sulfonyl)pyridine], the logD in data set [4] (setting [8]) was determined as 1.43.
The same measure, in the same setting: as for `O=S(=O)(c1ccccn1)C(F)(F)C(F)(F)F` [Compound 20, 2-((Perfluoroethyl)sulfonyl)pyridine], the figure is 2.21.
Regarding `FCSc1ccccn1` [Compound 21, 2-((Fluoromethyl)thio)pyridine], in data set [5], the “stability in aqueous media” value is recorded as “decomposes in water; also recorded: decomposed in aqueous media; also recorded: water-unstable”. In data set [3], this compound registered a pKa of 2.43.
As to `FCCSc1ccccn1` [Compound 22], the “stability in aqueous media” value in data set [5] is listed as “decomposes in water; also recorded: decomposed in aqueous media; also recorded: water-unstable”. Moreover, the pKa in data set [3] was determined as 3.08.
With `CC(F)(F)Sc1ccccc1` [SCF2CH3 Ph], the “logD7.4 (Ph)” value in data set [6] was 3.38.
Regarding `FC(F)(F)Sc1ccccc1` [SCF3 Ph], the “logD7.4 (Ph)” value in data set [6] is 3.70.
For `FC(F)(F)CSc1ccccc1` [SCH2CF3 Ph], in data set [6], the “logD7.4 (Ph)” value is 3.30.
As to `CCSc1ccccc1` [SCH2CH3 Ph], the “logD7.4 (Ph)” value in data set [6] is 3.42.
In the case of `CSc1ccccc1` [SCH3 Ph], the “logD7.4 (Ph)” value in data set [6] is 2.87.
